# Biological target: T1, Muscarinic acetylcholine receptor M2 (Homo sapiens, UniProt P08172)
# T1 sequence (P08172 whole entry): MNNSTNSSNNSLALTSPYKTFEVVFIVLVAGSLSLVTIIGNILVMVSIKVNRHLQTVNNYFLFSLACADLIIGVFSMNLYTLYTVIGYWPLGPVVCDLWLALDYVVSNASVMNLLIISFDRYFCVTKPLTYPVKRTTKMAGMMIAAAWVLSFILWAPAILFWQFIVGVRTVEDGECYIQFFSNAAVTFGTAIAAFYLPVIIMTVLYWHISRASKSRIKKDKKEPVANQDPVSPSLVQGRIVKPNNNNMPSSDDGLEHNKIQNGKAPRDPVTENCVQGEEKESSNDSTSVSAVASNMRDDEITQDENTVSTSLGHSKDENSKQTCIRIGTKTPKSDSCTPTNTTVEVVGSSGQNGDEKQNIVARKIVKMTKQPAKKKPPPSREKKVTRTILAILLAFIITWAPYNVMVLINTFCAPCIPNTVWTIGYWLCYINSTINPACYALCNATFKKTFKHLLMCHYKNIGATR
# Assay: Binding affinity against cloned human muscarinic acetylcholine receptor M2.
row,SMILES,Ki [nM]
1,Cc1ccccc1C(=O)N1CCC(N2CCC(C3(c4ccc(C(=O)NC(C)C)cc4)OCCO3)CC2)CC1,9
2,CC(C)(C)NC(=O)c1ccc(CC2CCN(C3CCN(C(=O)c4ccc(F)c5ccccc45)CC3)CC2)cc1,18
3,CC(C)NC(=O)c1ccc(CC2CCN(C3CCN(C(=O)c4ccc5[nH]ccc5c4)CC3)CC2)cc1,5
4,CC(C)NC(=O)c1ccc(CC2CCN(C3CCN(C(=O)c4cccc5[nH]ccc45)CC3)CC2)cc1,1.6
5,Cc1cccc(C(=O)N2CCC(N3CCC(C4(c5ccc(C(=O)NC(C)C)cc5)OCCO4)CC3)CC2)c1N,2.7
6,Cc1ccccc1C(=O)N1CCC(N2CCC(Cc3ccc(C(=O)NC(C)C)cc3)CC2)CC1,7
7,O=C(Nc1ccccc1)c1ccc(CC2CCN(C3CCN(C(=O)c4ccc(F)c5ccccc45)CC3)CC2)cc1,104
8,Cc1cccc(C(=O)N2CCC(N3CCC(Cc4ccc(C(=O)NC(C)C)cc4)CC3)CC2)c1N,9
9,CC(C)NC(=O)c1ccc(CC2CCN(C3CCN(C(=O)c4ccccc4N)CC3)CC2)cc1,78
10,CC(C)NC(=O)c1ccc(CC2CCN(C3CCN(C(=O)c4c[nH]c5ccccc45)CC3)CC2)cc1,6
11,CC(C)NC(=O)c1ccc(CC2CCN(C3CCN(C(=O)c4ccccc4Cl)CC3)CC2)cc1,12
12,CC(C)NC(=O)c1ccc(C2(C3CCN(C4CCN(C(=O)c5ccc(F)c6ccccc56)CC4)CC3)OCCO2)cc1,2.4
13,Cc1c(N)cccc1C(=O)N1CCC(N2CCC(Cc3ccc(C(=O)NC(C)C)cc3)CC2)CC1,1.6
14,Cc1ccccc1C(=O)N1CCC(N2CCC(Cc3ccc(C(=O)NC4CCCCC4)cc3)CC2)CC1,15
15,CC(C)NC(=O)c1ccc(CC2CCN(C3CCN(C(=O)c4cccc5c(F)cc(F)cc45)CC3)CC2)cc1,5
16,CC(C)NC(=O)c1ccc(CC2CCN(C3CCN(C(=O)c4ccc(F)c5ccccc45)CC3)CC2)cc1,2.1
17,Cc1c(N)cccc1C(=O)N1CCC(N2CCC(C3(c4ccc(C(=O)NC(C)C)cc4)OCCO3)CC2)CC1,1.9
18,CC(C)NC(=O)c1ccc(C2(C3CCN(C4CCN(C(=O)c5ccccc5Cl)CC4)CC3)OCCO2)cc1,35
19,CC(C)NC(=O)c1ccc(CC2CCN(C3CCN(C(=O)c4ccc(F)c5c(F)cccc45)CC3)CC2)cc1,9
20,Cc1ccccc1C(=O)N1CCC(N2CCC(Cc3ccc(C(=O)Nc4ccccc4)cc3)CC2)CC1,122
21,Cc1ccccc1C(=O)N1CCC(N2CCC(Cc3ccc(C(=O)NC(C)(C)C)cc3)CC2)CC1,106
22,CC(C)S(=O)(=O)c1ccc(CC2CCN(C3CCN(C(=O)c4ccc(F)c5ccccc45)CC3)CC2)cc1,17
23,CC(C)NC(=O)c1ccc(C2(C3CCN(C4CCN(C(=O)c5cccc6[nH]ccc56)CC4)CC3)OCCO2)cc1,1.1
24,O=C(NC1CCCCC1)c1ccc(CC2CCN(C3CCN(C(=O)c4ccc(F)c5ccccc45)CC3)CC2)cc1,1300
25,CC(C)NC(=O)c1ccc(CC2CCN(C3CCN(C(=O)c4cccc5nc[nH]c45)CC3)CC2)cc1,27
26,CC(C)NC(=O)c1ccc(CC2CCN(C3CCN(C(=O)c4ccnc5ccccc45)CC3)CC2)cc1,40

# Source: ChEMBL document CHEMBL1147502, “Isopropyl amide derivatives of potent and selective muscarinic M2 receptor antagonists” (Bioorg Med Chem Lett, 2004)
